Molecules are shown by their SMILES.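 Where inhibition never reached the appropriate level, the endpoint shown equals the highest concentration tested. Otherwise, values were interpolated linearly from a five-concentration, 48-hour dose response in 96-well plates. The concentration for 50% growth inhibition is given as GI50. TGI: total growth inhibition.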 Bounds are passed on as bounds.

Some test systems named below: U251 CNS; NCI/ADR-RES ovarian; HS 578T breast; HOP-92 NSCLC; BT-549 breast.
What all share (test): NCI anticancer screen, dose series, 48 h

For `COC(=O)CCC(=O)c1c(C)[nH]c(/C=C2\N=C(c3ccc[nH]3)C=C2OC)c1C`, the GI50 was 1.08 µM in the assay with U251 CNS; 0.728 µM in the assay on NCI/ADR-RES ovarian; 1.35 µM in the assay with HS 578T breast; 0.486 µM in the assay with HOP-92 NSCLC; 0.587 µM in the assay on BT-549 breast. For the same compound, the TGI in the assay on U251 CNS is 3.2 µM; in the assay with NCI/ADR-RES ovarian, 3.66 µM; in the assay with HS 578T breast it was 4.07 µM; with HOP-92 NSCLC, 1.55 µM; in the assay on BT-549 breast, 2.17 µM.
`COc1ccc2c(c1)c(C1(c3cn(C)c4ccc(OC)cc34)C(=O)Nc3ccc(F)cc31)cn2C`: the GI50 in the assay on U251 CNS is 4.24 µM; in the assay with NCI/ADR-RES ovarian, 4.66 µM; in the assay with HS 578T breast it was 9.01 µM; in the assay with HOP-92 NSCLC, 3.84 µM; with BT-549 breast, 10.6 µM. In addition, the TGI is above 100 µM in the assay with U251 CNS; above 100 µM in the assay with NCI/ADR-RES ovarian; above 100 µM in the assay on HS 578T breast; 58.7 µM in the assay with HOP-92 NSCLC; 50.8 µM in the assay with BT-549 breast.
In the case of `CCCN(CCC)c1ccc(CO)c(C)c1`, the GI50 with U251 CNS was 74 µM; in the assay on NCI/ADR-RES ovarian, above 100 µM; in the assay on HS 578T breast, 42.2 µM; with BT-549 breast, 47.6 µM. Moreover, the TGI with U251 CNS, in the assay with NCI/ADR-RES ovarian, in the assay on HS 578T breast and in the assay with BT-549 breast was above 100 µM throughout.
Consider `CCC[C@H](N[C@@H]1CCc2cc(F)cc(F)c2C1)C(=O)Nc1cn(C(C)(C)CNCC(C)(C)C)cn1`, for which the GI50 in the assay on U251 CNS is 15.7 µM; in the assay on NCI/ADR-RES ovarian, 15.3 µM; in the assay with HS 578T breast, 15.3 µM; in the assay on HOP-92 NSCLC, 1.47 µM; with BT-549 breast it was 11.5 µM. Also, the TGI is 58.7 µM in the assay on U251 CNS; above 81 µM in the assay on NCI/ADR-RES ovarian; 64.4 µM in the assay on HS 578T breast; 11.1 µM with HOP-92 NSCLC; 37.8 µM in the assay with BT-549 breast.
Take `CN1CCN(c2ccc3nc(-c4cc(C(C)(C)C)c(O)c(C(C)(C)C)c4)[nH]c3c2)CC1`: the GI50 in the assay with U251 CNS was 2.92 µM; in the assay with NCI/ADR-RES ovarian, 5.48 µM; with HS 578T breast, 2.33 µM; in the assay on HOP-92 NSCLC, 1.82 µM; in the assay on BT-549 breast, 2.23 µM. The TGI in the assay with U251 CNS was 8.59 µM; in the assay with NCI/ADR-RES ovarian, 20 µM; in the assay with HS 578T breast, 5.51 µM; in the assay with HOP-92 NSCLC it was 6.4 µM; in the assay on BT-549 breast, 6.43 µM.
Turning to `COc1ccc2c(c1)CC[C@@H]1[C@@H]2CC[C@@]2(C)[C@H]1CC1(CCCCC1)[C@@H]2O`, the GI50 in the assay on U251 CNS is 10 µM; in the assay on NCI/ADR-RES ovarian it was 14.8 µM; in the assay with HS 578T breast, 3.59 µM; in the assay with HOP-92 NSCLC it was 16 µM. The TGI came to 24.4 µM with U251 CNS, 30.7 µM in the assay with NCI/ADR-RES ovarian, 10.9 µM with HS 578T breast and 33 µM in the assay on HOP-92 NSCLC.
In the case of `CCC(Sc1nnc2c3ccccc3n(CC)c2n1)C(=O)Nc1ccccc1OC` (stereo not given), the GI50 in the assay with U251 CNS was above 100 µM; with NCI/ADR-RES ovarian it was above 100 µM; in the assay on HS 578T breast, above 100 µM; with HOP-92 NSCLC, 65.5 µM; in the assay on BT-549 breast it was above 100 µM. Further, the TGI in the assay with U251 CNS, in the assay with NCI/ADR-RES ovarian, in the assay with HS 578T breast, in the assay on HOP-92 NSCLC and in the assay with BT-549 breast was above 100 µM throughout.
Consider `CN1CCN(c2ccc3c4c(cccc24)C(=O)N(CCN2CCN(CCCN4CCN(CCN5C(=O)c6cccc7c(N8CCN(C)CC8)ccc(c67)C5=O)CC4)CC2)C3=O)CC1`, for which the GI50 in the assay on U251 CNS is 7.43 µM; with NCI/ADR-RES ovarian, 4.2 µM; with HS 578T breast it was 10.6 µM; with HOP-92 NSCLC, 2.39 µM; in the assay with BT-549 breast, 9.92 µM. The TGI with U251 CNS came to 14.3 µM; in the assay on NCI/ADR-RES ovarian, 10.3 µM; in the assay with HS 578T breast it was 38.7 µM; with HOP-92 NSCLC it was 10.9 µM; in the assay with BT-549 breast, 19.7 µM.
As to `CC(=O)O[C@@H]1CO[C@H]2O[C@H]3[C@@H](C(C=O)=C[C@H](O)[C@@H]4C5=C(C(C)C)CC[C@]5(C)CC[C@@]34C)[C@@]2(O)C1=O`, the TGI in the assay on U251 CNS came out at 0.55 µM; in the assay with NCI/ADR-RES ovarian, 1.06 µM; in the assay with HS 578T breast, 0.594 µM; in the assay with HOP-92 NSCLC, 0.554 µM; with BT-549 breast, 0.353 µM.
Regarding `CCCCCCCCCCCCCCCC(=O)OCC(O)C1OC(=O)C(O)=C1O` (stereo not given), the TGI with U251 CNS is 61.7 µM; with NCI/ADR-RES ovarian, 79.8 µM.
As for `CC(=O)OC1COC(S[As](C)C)C(OC(C)=O)C1OC(C)=O` (stereo not given), the GI50 was 0.639 µM in the assay with U251 CNS; 0.155 µM with NCI/ADR-RES ovarian; 0.344 µM in the assay with HS 578T breast; 0.0332 µM in the assay with HOP-92 NSCLC; 0.755 µM in the assay with BT-549 breast. For the same compound, the TGI with U251 CNS was 5.24 µM; in the assay on NCI/ADR-RES ovarian, 0.974 µM; in the assay with HS 578T breast, 0.916 µM; in the assay with HOP-92 NSCLC, 0.28 µM; in the assay with BT-549 breast it was 6.22 µM.
As for `COc1ccc(C(O)CNC(=O)c2ccccc2)cc1` (stereo not given), the TGI with U251 CNS, in the assay on NCI/ADR-RES ovarian, in the assay with HS 578T breast, in the assay with HOP-92 NSCLC and in the assay on BT-549 breast was above 100 µM each time.
As to `CC(ONC(=O)c1cc(C(F)(F)F)cc(C(F)(F)F)c1)C(=O)Nc1ccc(Cl)cc1` (stereo not given), the GI50 with U251 CNS was 4.61 µM; in the assay with NCI/ADR-RES ovarian it was 6.2 µM; in the assay on HS 578T breast it was 5.43 µM; with HOP-92 NSCLC, 2.77 µM; in the assay on BT-549 breast it was 3.71 µM. For the same compound, the TGI in the assay with U251 CNS was above 50.5 µM; in the assay with NCI/ADR-RES ovarian it was 41.6 µM; in the assay on HS 578T breast it was 42.4 µM; in the assay with HOP-92 NSCLC it was 7.21 µM; in the assay with BT-549 breast, 16.7 µM.
On to `COc1cc(CSc2nc3ccc(C)cc3c(=O)n2Cc2ccccc2)cc(OC)c1OC`, for which the GI50 was 3.2 µM with U251 CNS; 1.51 µM with NCI/ADR-RES ovarian; 2.57 µM with HS 578T breast; 1.44 µM in the assay with HOP-92 NSCLC; 7.07 µM in the assay with BT-549 breast. The TGI with U251 CNS was 20.8 µM; in the assay on NCI/ADR-RES ovarian, 14.6 µM; in the assay on HS 578T breast it was 48.8 µM; with HOP-92 NSCLC it was 7.42 µM; with BT-549 breast, 77.5 µM.
Turning to `COc1ccc2[nH]cc(-c3nc(-c4cn(C)c5ccncc45)cs3)c2c1`, the GI50 with U251 CNS was 1.91 µM; with HS 578T breast it was 14.7 µM; in the assay with HOP-92 NSCLC, 1.9 µM; with BT-549 breast it was 1.79 µM. For the same compound, the TGI with U251 CNS came to 3.42 µM; in the assay with HS 578T breast it was 41.6 µM; with HOP-92 NSCLC, 3.63 µM; in the assay with BT-549 breast it was 3.4 µM.
Regarding `C#C[C@]1(O)CC[C@H]2[C@@H]3CC=C4c5sc(N=C(N)N)nc5CC[C@]4(C)[C@H]3CC[C@@]21C`, the GI50 in the assay with U251 CNS is 0.388 µM; with NCI/ADR-RES ovarian it was 1.44 µM; with HS 578T breast, 0.243 µM; in the assay with HOP-92 NSCLC it was 0.842 µM; in the assay on BT-549 breast, 1.08 µM. Also, the TGI with U251 CNS was found to be 1.85 µM; in the assay on NCI/ADR-RES ovarian, 3.59 µM; with HS 578T breast it was 1.11 µM; in the assay with HOP-92 NSCLC it was 2.37 µM; with BT-549 breast, 2.49 µM.
For the compound `CC(C)=CCc1c(O)cc(/C=C/c2cc(O)c3c(c2)C[C@@H]2C(C)(C)[C@H](O)[C@H](O)C[C@@]2(C)O3)cc1O`, the GI50 in the assay on U251 CNS was 0.0533 µM; in the assay on NCI/ADR-RES ovarian, 1.38 µM; in the assay on HS 578T breast, below 0.001 µM; with HOP-92 NSCLC, 0.0104 µM; with BT-549 breast it was 0.0553 µM. The TGI in the assay on U251 CNS is above 5.28 µM; in the assay with NCI/ADR-RES ovarian it was 7.43 µM; with HS 578T breast, above 2.21 µM; in the assay on HOP-92 NSCLC, 2.6 µM; with BT-549 breast it was above 7.23 µM.
Consider `CCCCC(=O)N/N=C/c1cc(I)cc(I)c1O`, for which the GI50 in the assay with U251 CNS is 1.99 µM; with NCI/ADR-RES ovarian, 2.58 µM; with HS 578T breast it was 7.92 µM; in the assay on BT-549 breast, 4.48 µM. The TGI with U251 CNS was found to be 16.1 µM; in the assay with NCI/ADR-RES ovarian, 20.1 µM; with HS 578T breast it was 54.4 µM; with BT-549 breast, 29.5 µM.
As to `O=[N+]([O-])c1ccccc1N=Nc1c(O)[nH]c2ccccc12`, the TGI with U251 CNS was above 58.2 µM; in the assay with NCI/ADR-RES ovarian, above 58.8 µM; in the assay with HS 578T breast it was above 100 µM; in the assay with BT-549 breast, above 100 µM.
As for `O=C1c2ccccc2C(=O)N1c1ccc(S(=O)(=O)Nc2ncccn2)cc1`, the GI50 with U251 CNS, in the assay on NCI/ADR-RES ovarian, with HS 578T breast and with BT-549 breast was above 100 µM each time. For the same compound, the TGI in the assay on U251 CNS, with NCI/ADR-RES ovarian, with HS 578T breast and in the assay with BT-549 breast was above 100 µM each time.
On to `CC(C)(C)c1ccc([I+]c2ccc(C(C)(C)C)cc2)cc1`, for which the GI50 in the assay with U251 CNS is 1.47 µM; in the assay on NCI/ADR-RES ovarian, 21.5 µM; in the assay on HS 578T breast it was 1.98 µM; in the assay with HOP-92 NSCLC it was 1.25 µM. The TGI is 3.59 µM in the assay with U251 CNS, 89.5 µM in the assay with NCI/ADR-RES ovarian, 7.69 µM in the assay on HS 578T breast and 3.5 µM in the assay on HOP-92 NSCLC.
Take `O=C1Nc2ccccc2C1Cc1ccccc1` (stereo not given): the TGI in the assay on U251 CNS, with HS 578T breast and with HOP-92 NSCLC was above 100 µM each time.
For `Cn1c(=O)cc2c3c(c(NCCCO)ccc31)C(=O)c1ccccc1-2`, the GI50 in the assay with U251 CNS was 2.6 µM; in the assay with NCI/ADR-RES ovarian it was 5.2 µM; in the assay with HS 578T breast, 3.68 µM; with BT-549 breast, 6.67 µM. In addition, the TGI in the assay on U251 CNS, in the assay with NCI/ADR-RES ovarian, in the assay on HS 578T breast and with BT-549 breast was above 100 µM in each case.

(Values after PubChem BioAssay (NCI).)
